# Test results as given in PubChem BioAssay AID248 (DTP/NCI, 2004).
# Values joined by “and” are separate entries in the source; they are usually repeats but may differ in a detail not shown here. Equal values may be shown once. Toxic doses and inconclusive results are not listed.
# Tested on: L1210 leukemia ip in BDF1 mice, survival T/C
# Experiment: NCI In Vivo Anticancer Drug Screen. Data for tumor model L1210 Leukemia (intraperitoneal) in B6D2F1 (BDF1) mice
# Conditions: endpoint: mean survival time, higher = longer survival
# Outline: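 Tumor was transplanted into mice, which were then dosed with test compound or vehicle alone. Survival was recorded for each group, and the treated figure was expressed relative to the control figure.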
# [1] = dose: 50.0 mg/kg/injection, schedule: Q04DX003 (ip), vehicle: saline
# [2] = dose: 100.0 mg/kg/injection, schedule: Q01DX009 (ip), vehicle: saline
# [3] = dose: 200.0 mg/kg/injection, schedule: Q01DX001 (ip), vehicle: saline
# [4] = dose: 200.0 mg/kg/injection, schedule: Q04DX003 (ip), vehicle: Klucel (hydroxypropylcellulose) (HPC)
# [5] = dose: 300.0 mg/kg/injection, schedule: Q04DX003 (ip), vehicle: saline with Tween-80
# [6] = dose: 100.0 mg/kg/injection, schedule: Q01DX009 (ip), vehicle: saline with Tween-80
# [7] = dose: 100.0 mg/kg/injection, schedule: Q04DX003 (ip), vehicle: saline
# [8] = dose: 200.0 mg/kg/injection, schedule: Q01DX009 (ip), vehicle: saline with Tween-80
# [9] = dose: 200.0 mg/kg/injection, schedule: Q04DX003 (ip), vehicle: saline
# [10] = dose: 400.0 mg/kg/injection, schedule: Q04DX003 (ip), vehicle: saline
# [11] = dose: 100.0 mg/kg/injection, schedule: Q01DX009 (ip), vehicle: Klucel (hydroxypropylcellulose) (HPC)
# [12] = dose: 100.0 mg/kg/injection, schedule: Q04DX003 (ip), vehicle: Klucel (hydroxypropylcellulose) (HPC)
# [13] = dose: 200.0 mg/kg/injection, schedule: Q01DX009 (ip), vehicle: Klucel (hydroxypropylcellulose) (HPC)
# [14] = dose: 400.0 mg/kg/injection, schedule: Q01DX009 (ip), vehicle: Klucel (hydroxypropylcellulose) (HPC)
# [15] = dose: 400.0 mg/kg/injection, schedule: Q04DX003 (ip), vehicle: Klucel (hydroxypropylcellulose) (HPC)
# [16] = dose: 50.0 mg/kg/injection, schedule: Q01DX009 (ip), vehicle: saline with Tween-80
# [17] = dose: 50.0 mg/kg/injection, schedule: Q01DX009 (ip), vehicle: saline
# [18] = dose: 100.0 mg/kg/injection, schedule: Q01DX001 (ip), vehicle: saline
smiles,measurement,setting,value
CCSc1nc(Cl)cc(Sc2nc(N)nc3nc[nH]c23)n1,T/C,"dose: 10.0 mg/kg/injection, schedule: Q01DX009 (ip), vehicle: saline",104 % of control
same,T/C,"dose: 12.0 mg/kg/injection, schedule: Q01DX001 (ip), vehicle: saline",100 % of control
same,T/C,"dose: 15.0 mg/kg/injection, schedule: Q04DX003 (ip), vehicle: saline",116 % of control
same,T/C,"dose: 19.0 mg/kg/injection, schedule: Q01DX001 (ip), vehicle: saline",119 % of control
same,T/C,"dose: 20.0 mg/kg/injection, schedule: Q01DX009 (ip), vehicle: saline",115 % of control
same,T/C,"dose: 30.0 mg/kg/injection, schedule: Q04DX003 (ip), vehicle: saline",122 % of control
same,T/C,"dose: 45.0 mg/kg/injection, schedule: Q01DX001 (ip), vehicle: saline",123 % of control
same,T/C,[1],118 % of control
same,T/C,"dose: 66.0 mg/kg/injection, schedule: Q01DX001 (ip), vehicle: saline",114 % of control and 123 % of control
same,T/C,[2],156 % of control
same,T/C,"dose: 100.0 mg/kg/injection, schedule: Q01DX Z (ip), vehicle: methylcellulose (MC)",115 % of control
same,T/C,"dose: 120.0 mg/kg/injection, schedule: Q04DX003 (ip), vehicle: saline",151 % of control
same,T/C,"dose: 132.0 mg/kg/injection, schedule: Q04DX003 (ip), vehicle: saline with Tween-80",175 % of control
same,T/C,[3],100 % of control
same,T/C,"dose: 200.0 mg/kg/injection, schedule: Q01DX Z (ip), vehicle: methylcellulose (MC)",122 % of control
same,T/C,[4],158 % of control
same,T/C,"dose: 200.0 mg/kg/injection, schedule: Q04DX003 (ip), vehicle: saline with Tween-80",200 % of control
same,T/C,"dose: 240.0 mg/kg/injection, schedule: Q01DX001 (ip), vehicle: saline",193 % of control
same,T/C,"dose: 240.0 mg/kg/injection, schedule: Q04DX003 (ip), vehicle: saline",204 % of control
same,T/C,"dose: 300.0 mg/kg/injection, schedule: Q04DX003 (ip), vehicle: Klucel (hydroxypropylcellulose) (HPC)",168 % of control
same,T/C,[5],180 % of control
same,T/C,"dose: 360.0 mg/kg/injection, schedule: Q01DX001 (ip), vehicle: saline",205 % of control
same,T/C,"dose: 360.0 mg/kg/injection, schedule: Q04DX003 (ip), vehicle: saline",188 % of control
same,T/C,"dose: 400.0 mg/kg/injection, schedule: Q01DX009 (ip), vehicle: saline",108 % of control
same,T/C,"dose: 400.0 mg/kg/injection, schedule: Q01DX Z (ip), vehicle: carboxymethylcellulose (CMC)",102 % of control
same,T/C,"dose: 600.0 mg/kg/injection, schedule: Q01DX009 (ip), vehicle: saline",121 % of control
same,T/C,"dose: 800.0 mg/kg/injection, schedule: Q01DX Z (ip), vehicle: carboxymethylcellulose (CMC)",90 % of control
same,T/C,"dose: 810.0 mg/kg/injection, schedule: Q01DX001 (ip), vehicle: saline",124 % of control
same,T/C,"dose: 810.0 mg/kg/injection, schedule: Q04DX003 (ip), vehicle: saline",119 % of control
O=C1C(O)=C(Cl)C(=O)C(O)=C1Cl,T/C,[6],106 % of control
same,T/C,[7],114 % of control
same,T/C,[8],95 % of control
same,T/C,[9],120 % of control
same,T/C,[10],116 % of control
O=C(NNC(=O)c1ccc([N+](=O)[O-])cc1)c1ccccc1,T/C,[11],96 % of control
same,T/C,[12],105 % of control
same,T/C,[13],101 % of control
same,T/C,[4],103 % of control
same,T/C,[14],94 % of control
same,T/C,[15],100 % of control
CC(=O)CC(=O)n1c(=O)cc(C)c2ccccc21,T/C,"dose: 75.0 mg/kg/injection, schedule: Q04DX003 (ip), vehicle: saline with Tween-80",117 % of control
same,T/C,"dose: 150.0 mg/kg/injection, schedule: Q04DX003 (ip), vehicle: saline with Tween-80",98 % of control
same,T/C,[5],98 % of control
COC1CCCCC1I (configuration not stated),T/C,[16],95 % of control
same,T/C,[6],95 % of control
same,T/C,[8],93 % of control
CCCCCCCCCC(=O)c1nc(N)nc(N)n1,T/C,[16],105 % of control
same,T/C,[6],105 % of control
same,T/C,[8],97 % of control
CNCCN1CCCC1,T/C,[17],95 % of control
same,T/C,[2],103 % of control
same,T/C,[7],102 % of control
same,T/C,"dose: 200.0 mg/kg/injection, schedule: Q01DX009 (ip), vehicle: saline",101 % of control
same,T/C,[9],109 % of control
CC1CCCC/C1=N/NC(N)=O (configuration not stated),T/C,[11],97 % of control
same,T/C,[7],97 % of control
same,T/C,[9],88 % of control
same,T/C,[10],95 % of control
COc1ccc(NC(=O)Oc2cc(C)cc(C)c2)cc1,T/C,[11],106 % of control
same,T/C,[12],100 % of control
same,T/C,[13],101 % of control
same,T/C,[4],97 % of control
same,T/C,[14],100 % of control
same,T/C,[15],92 % of control
CC1(Cl)C(=O)NC(=O)C1Cl (configuration not stated),T/C,"dose: 3.12 mg/kg/injection, schedule: Q01DX009 (ip), vehicle: saline",92 % of control
same,T/C,"dose: 6.25 mg/kg/injection, schedule: Q01DX009 (ip), vehicle: saline",87 % of control
same,T/C,"dose: 25.0 mg/kg/injection, schedule: Q01DX009 (ip), vehicle: saline",87 % of control
same,T/C,"dose: 25.0 mg/kg/injection, schedule: Q04DX003 (ip), vehicle: saline",103 % of control
same,T/C,[17],92 % of control
same,T/C,[1],97 % of control
same,T/C,[7],110 % of control
O=[N+]([O-])c1cc(S(=O)(=O)N2CCCC2)ccc1N1CCCC1,T/C,[7],100 % of control
same,T/C,[9],96 % of control
same,T/C,[10],105 % of control
Clc1ccc(NC2=NCCS2)cc1,T/C,[11],104 % of control
same,T/C,[13],100 % of control
same,T/C,[14],93 % of control
O=C(OC(=Nc1ccc([N+](=O)[O-])cc1)c1cc(N2CCCC2)ccn1)c1ccc(-c2ccccc2)cc1,T/C,[18],98 % of control
same,T/C,[3],97 % of control
same,T/C,"dose: 400.0 mg/kg/injection, schedule: Q01DX001 (ip), vehicle: saline",92 % of control
C1=CC2(CCC13CS3)CS2 (configuration not stated),T/C,"dose: 100.0 mg/kg/injection, schedule: Q04DX002 (ip), vehicle: saline with Tween-80",91 % of control
same,T/C,"dose: 200.0 mg/kg/injection, schedule: Q04DX002 (ip), vehicle: saline with Tween-80",88 % of control
same,T/C,"dose: 400.0 mg/kg/injection, schedule: Q04DX002 (ip), vehicle: saline with Tween-80",91 % of control
CCOC(=O)C(C(C)=O)C1c2ccccc2Nc2ccccc21 (configuration not stated),T/C,[16],98 % of control
same,T/C,[6],109 % of control
same,T/C,[8],106 % of control
CNc1ccccc1C#N,T/C,[11],102 % of control
same,T/C,[12],93 % of control
same,T/C,[13],98 % of control
same,T/C,[4],95 % of control
same,T/C,[14],109 % of control
same,T/C,[15],97 % of control
Cc1cn[nH]c1-c1ccccc1,T/C,"dose: 50.0 mg/kg/injection, schedule: Q04DX003 (ip), vehicle: Klucel (hydroxypropylcellulose) (HPC)",107 % of control
same,T/C,[12],104 % of control
same,T/C,[4],94 % of control
CN(C)C(=O)Nc1cccc(OP(=O)(Oc2ccccc2)Oc2ccccc2)c1,T/C,[12],91 % of control
same,T/C,[4],94 % of control
same,T/C,[15],98 % of control
CC1=CC(=O)C(=O)C=C1O,T/C,"dose: 50.0 mg/kg/injection, schedule: Q01DX001 (ip), vehicle: water",103 % of control
same,T/C,"dose: 100.0 mg/kg/injection, schedule: Q01DX001 (ip), vehicle: water",113 % of control
same,T/C,"dose: 200.0 mg/kg/injection, schedule: Q01DX001 (ip), vehicle: water",108 % of control
same,T/C,"dose: 400.0 mg/kg/injection, schedule: Q01DX001 (ip), vehicle: water",110 % of control
Cc1cc(C(=O)O)c(C)cc1SSc1cc(C)c(C(=O)O)cc1C,T/C,"dose: 75.0 mg/kg/injection, schedule: Q01DX001 (ip), vehicle: carboxymethylcellulose (CMC)",94 % of control
same,T/C,"dose: 150.0 mg/kg/injection, schedule: Q01DX001 (ip), vehicle: carboxymethylcellulose (CMC)",94 % of control
same,T/C,"dose: 300.0 mg/kg/injection, schedule: Q01DX001 (ip), vehicle: carboxymethylcellulose (CMC)",88 % of control
CSc1nc(N)nc2c1ncn2C1OC(CO)C(O)C1O (configuration not stated),T/C,"dose: 63.0 mg/kg/injection, schedule: Q01DX009 (ip), vehicle: saline",98 % of control
same,T/C,[18],105 % of control
same,T/C,"dose: 108.0 mg/kg/injection, schedule: Q01DX009 (ip), vehicle: saline",98 % of control
same,T/C,"dose: 178.0 mg/kg/injection, schedule: Q01DX001 (ip), vehicle: saline",110 % of control
same,T/C,"dose: 180.0 mg/kg/injection, schedule: Q01DX009 (ip), vehicle: saline",118 % of control
same,T/C,[3],112 % of control
same,T/C,"dose: 267.0 mg/kg/injection, schedule: Q01DX001 (ip), vehicle: saline",121 % of control
